Data as given in patent US9695155B2, “Herbicidal substituted pyrimidinyloxy benzene compounds” (E. I. DU PONT DE NEMOURS AND COMPANY, priority 2013, dated 2017).

How the values were obtained:
sedge, umbrella = experiment: Test C flooded paddy test; assay type: in vivo, Cyperus difformis; settings: Flood, scale 0 to 100 (0 no effect, 100 complete control), 13 to 15 days
Outline: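 Test compounds are applied straight into paddy water held 3 cm above the soil surface, with that flood maintained for the whole test. After 13 to 15 days in the greenhouse, each species is scored visually relative to controls.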

blackgrass = experiment: Test A postemergence; assay type: in vivo, Alopecurus myosuroides
Outline: (§1)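 Greenhouse pot test, loam/sand soil. Formulation: non-phytotoxic solvent mix plus surfactant. Pre: directed spray onto soil after sowing. Post: plants at 1–2 leaf, 2–10 cm. Rated visually vs untreated controls at ~10 d, 0 (no effect) to 100 (complete control).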

kochia = experiment: Test A preemergence; assay type: in vivo, Kochia scoparia
Outline: as §1

galium = experiment: Test A postemergence; assay type: in vivo, Galium aparine
Outline: as §1

[1] = 125 g ai/ha, 0 to 100 scale where 0 is no effect and 100 is complete control
[2] = 500 g ai/ha, 0 to 100 scale, 0 no effect, 100 complete control
[3] = 500 g ai/ha, 0 to 100 scale, 0 no effect, 100 complete control, approx. 10 days
[4] = 500 g ai/ha, 0 to 100 scale where 0 is no effect and 100 is complete control
[5] = 31 g ai/ha, 0 to 100 scale, 0 no effect, 100 complete control
[6] = 125 g ai/ha, 0 to 100 scale, 0 no effect, 100 complete control
[7] = 31 g ai/ha, 0 to 100 scale where 0 is no effect and 100 is complete control, visual, approximately 10 days
[8] = 1000 g ai/ha, 0 to 100 scale, 0 no effect, 100 complete control
[9] = 1000 g ai/ha, 0 to 100 scale, 0 no effect, 100 complete control, approx. 10 days

Structure (SMILES) | Plant response rating, Sedge, Umbrella (sedge, umbrella; 31 g ai/ha) | Plant response rating, Sedge, Umbrella (sedge, umbrella; 62 g ai/ha) | Plant response rating, Sedge, Umbrella (sedge, umbrella; 125 g ai/ha) | Plant response rating, Sedge, Umbrella (sedge, umbrella; 250 g ai/ha) | Plant response rating, Kochia (kochia; [1]) | Plant response rating, Galium (galium; [4]) | Plant response rating, Blackgrass (blackgrass; [4]) | Kochia plant response rating (kochia; [4]) | also measured
N#Cc1cccc(Oc2ncc(F)cn2)c1-n1cc(Br)cn1 [Compound 62] | 0 | 50 | 90 | 100 |  |  |  |  | 
FCc1cccc(Oc2ncc(Cl)cn2)c1-n1cc(Br)cn1 [Compound 83] |  |  |  |  | 100 | 100 |  |  | Plant response rating, Blackgrass (blackgrass; [1]): 100; Plant response rating, Blackgrass (blackgrass; [2]): 100; Kochia plant response rating (kochia; [3]): 100; Plant response rating, Galium (galium; [1]): 100
Fc1cccc(Oc2ncc(Cl)cn2)c1-n1cc(OCC(F)(F)F)cn1 [Compound 270] | 0 | 25 | 60 | 95 |  |  |  |  | Plant response rating, Blackgrass (blackgrass; [5]): 10; Plant response rating, Blackgrass (blackgrass; [6]): 40; Plant response rating, Kochia (kochia; [7]): 80; Kochia plant response rating (0 to 100 scale) (kochia; 125 g ai/ha): 100; Plant response rating, Galium (galium; [5]): 60; Plant response rating, Galium (galium; [6]): 90
FC(F)(F)Sc1cnn(-c2ccccc2Oc2ncc(Cl)cn2)c1 [Compound 132, 5-chloro-2-[2-[4-(trifluoromethylthio)-1H-pyrazol-1-yl]phenoxy]pyrimidine] |  |  |  |  | 100 | 100 | 90 | 100 | Blackgrass plant response rating (blackgrass; [1]): 60; Galium plant response rating (galium; [1]): 100
FCc1cccc(Oc2ncc(Br)cn2)c1-n1cc(C(F)(F)F)cn1 [Compound 120] | 0 | 0 | 60 | 85 | 90 |  |  |  | Plant response rating, Blackgrass (blackgrass; [5]): 60; Plant response rating, Blackgrass (blackgrass; [1]): 80; Kochia plant response rating (0 to 100 scale) (kochia; 31 g ai/ha): 20; Plant response rating, Galium (galium; [5]): 90; Plant response rating, Galium (galium; [1]): 100
N#Cc1cnn(-c2c(Oc3ncc(Cl)cn3)cccc2C(F)F)c1 [Compound 236] | 0 | 20 | 60 | 80 |  |  |  |  | 
CCOc1cn(-c2c(Br)cccc2Oc2ncc(Cl)cn2)nn1 [Compound 84] |  |  |  |  | 100 | 100 |  |  | Plant response rating, Blackgrass (blackgrass; [1]): 80; Plant response rating, Blackgrass (blackgrass; [2]): 100; Kochia plant response rating (kochia; [3]): 100; Plant response rating, Galium (galium; [1]): 100
Clc1cnc(Oc2cccc(Br)c2-n2cc(Br)nn2)nc1 [Compound 129] |  |  |  |  | 100 | 100 | 90 | 100 | Blackgrass plant response rating (blackgrass; [1]): 70; Galium plant response rating (galium; [1]): 100
CCCOc1cnn(-c2c(C#N)cccc2Oc2ncc(Cl)cn2)c1 [Compound 150] | 0 | 50 | 75 | 85 | 100 | 100 | 100 | 100 | Blackgrass plant response rating (blackgrass; [1]): 100; Galium plant response rating (galium; [1]): 90
Clc1cnc(Oc2cccc(Br)c2-n2cc(Br)cn2)nc1 [Compound 65] | 50 | 65 | 75 | 85 |  |  |  |  | 
COc1cnn(-c2c(C#N)cccc2Oc2ncc(Cl)cn2)c1 [Compound 137] |  |  |  |  | 90 | 100 | 90 | 100 | Blackgrass plant response rating (blackgrass; [1]): 20; Galium plant response rating (galium; [1]): 70
Fc1cccc(Oc2ncc(Cl)cn2)c1-n1cc(C2CC2)nn1 [Compound 155] |  |  |  |  |  |  |  |  | Plant response rating, Blackgrass (blackgrass; [8]): 100; Kochia plant response rating (kochia; [9]): 100; Plant response rating, Galium (galium; [8]): 100
N#Cc1cccc(Oc2ncc(Cl)cn2)c1-n1cnc(C(F)(F)F)c1 [Compound 252, 3-[(5-chloro-2-pyrimidinyl)oxy]-2-[4-(trifluoromethyl)-1H-imidazol-1-yl]benzonitrile] |  |  |  |  |  | 100 | 100 | 100 | Plant response rating, Blackgrass (blackgrass; [5]): 10; Plant response rating, Blackgrass (blackgrass; [6]): 60; Plant response rating, Kochia (kochia; [7]): 80; Kochia plant response rating (0 to 100 scale) (kochia; 125 g ai/ha): 100; Plant response rating, Galium (galium; [5]): 60; Plant response rating, Galium (galium; [6]): 90
Cc1cnc(Oc2cccc(C#N)c2-n2cc(I)cn2)nc1 [Compound 136] |  |  |  |  | 90 | 100 | 100 | 100 | Blackgrass plant response rating (blackgrass; [1]): 20; Galium plant response rating (galium; [1]): 80
FCc1cccc(Oc2ncc(F)cn2)c1-n1cc(C(F)(F)F)cn1 [Compound 118] |  |  |  |  | 100 |  |  |  | Plant response rating, Blackgrass (blackgrass; [5]): 60; Plant response rating, Blackgrass (blackgrass; [1]): 90; Kochia plant response rating (0 to 100 scale) (kochia; 31 g ai/ha): 100; Plant response rating, Galium (galium; [5]): 70; Plant response rating, Galium (galium; [1]): 90
N#Cc1cccc(Oc2ncc(Cl)cn2)c1-n1cc(-n2ccc(C(F)(F)F)n2)cn1 [Compound 284] |  |  |  |  |  | 60 | 70 | 100 | Plant response rating, Blackgrass (blackgrass; [6]): 30; Kochia plant response rating (0 to 100 scale) (kochia; 125 g ai/ha): 80; Plant response rating, Galium (galium; [6]): 20
Clc1cnc(Oc2ccccc2-n2cc(Cl)cn2)nc1 [Compound 3] | 0 | 0 | 20 | 70 |  |  |  |  | 
FCc1cn(-c2c(F)cccc2Oc2ncc(Cl)cn2)nn1 [Compound 154] |  |  |  |  |  |  |  |  | Plant response rating, Blackgrass (blackgrass; [8]): 90; Kochia plant response rating (kochia; [9]): 100; Plant response rating, Galium (galium; [8]): 100
